Test results reported in patent publication US20110070213A1, “DERMAL COMPOSITIONS CONTAINING COENZYME Q AS THE ACTIVE INGREDIENT” (KANEKA CORPORATION, priority 2000, published 2011).

Legend:
incision wound = experiment: Incised wound healing test in rats; assay type: in vivo, SD rats; settings: 1% ointment, 0.2 g/day for 4 days; four days after incision
Source text: SD rats (male, 12-week-old) were clipped of hairs and divided into groups of 10 animals to make the mean body weights of the groups roughly the same, and subjected to the test. Each animal was given an incision wound along the median line under diethyl ether anesthesia. The incision wound was stapled at three sites using Michel's clips, and a 1% oxidized coenzyme Q10 ointment or a 1% reduced coenzyme Q10 ointment was applied at a dose of 0.2 g/day for 4 days. Two control groups, namely a nontreated group and an ointment base group treated with the same dose of the ointment base, were used. Three days after incision, the Michel's clips were removed and, four days after incision, each animal was euthanized by overanesthesia with diethyl ether, the skin around the incision was peeled off, and skin sections were prepared. The skin sections were measured for tension on a tensile tester.

[1] = Percutaneous absorption test (coenzyme Q10 in skin after dermal application); assay type: in vivo, hairless rats; settings: for Coenzyme Q10 concentration in skin / Reduced coenzyme Q10 concentration in skin: mean ± SD
Protocol: The test sample 1 and comparative sample 1 were used as test substances. The test was carried out using male hairless rats (weighing 250 to 300 g) fed under well-fed conditions. A 0.1-g portion of the test sample 1, comparative sample 1, or PEG 1500 as a control was applied to an area of 3 cm square on the back of each hairless rat lightly anesthetized with ether. Three hours, 8 hours or 24 hours after application, the rat was sacrificed by euthanasia, the applied area was washed thoroughly, and a skin sample was taken. The skin sample was homogenized and extracted with propanol, the extract was concentrated using a solid phase column, and the amount of coenzyme Q10 in the skin was determined by high-performance liquid chromatography.
Each of the skin samples mentioned above was homogenized and extracted with hexane, the extract was evaporated to dryness and dissolved in ethanol, and the proportion of reduced coenzyme Q10 in skin was determined by high-performance liquid chromatography with an electrochemical detector. Each numerical value means the mean±standard deviation.
The test was carried out in the same manner as in Example 1 using the test samples 2, 3, 4 and 5 as well as the comparative sample 1 as test samples.
In FIG. 1, the vertical axis denotes the total amount of coenzyme Q10 and the amount of reduced coenzyme Q10 in skin at 3 hours after application, and the horizontal axis denotes the content (% by weight) of reduced coenzyme Q10 relative to the total amount of coenzyme Q10 in the sample applied. Each bar indicates the mean value.

[2] = as compared with 100% oxidized coenzyme Q10

| Compound | Skin repair (tension of skin sections on a tensile tester, in words) (incision wound) | Coenzyme Q10 concentration in skin, relative value in parentheses (oxidized coenzyme Q10 = 100) ([1]; 3 hr) | Reduced coenzyme Q10 concentration in skin, relative value in parentheses (oxidized coenzyme Q10 = 100) ([1]; 3 hr) | Coenzyme Q10 concentration in skin ([1]; 3 hr after application of 0.1 g PEG 1500 ointment (0.1 g coenzyme Q10 per 10 ml) to 3 cm square back skin) [µg/g] | Reduced coenzyme Q10 concentration in skin ([1]; 3 hr after application, HPLC with electrochemical detector) [µg/g] | Coenzyme Q10 concentration in skin, relative value in parentheses (oxidized coenzyme Q10 = 100) ([1]; 8 hr) | Reduced coenzyme Q10 concentration in skin, relative value in parentheses (oxidized coenzyme Q10 = 100) ([1]; 8 hr) | Coenzyme Q10 concentration in skin ([1]; 8 hr after application of 0.1 g PEG 1500 ointment to back skin) [µg/g] | Reduced coenzyme Q10 concentration in skin ([1]; 8 hr after application) [µg/g] | Coenzyme Q10 concentration in skin, relative value in parentheses (oxidized coenzyme Q10 = 100) ([1]; 24 hr) | Reduced coenzyme Q10 concentration in skin, relative value in parentheses (oxidized coenzyme Q10 = 100) ([1]; 24 hr) | Coenzyme Q10 concentration in skin ([1]; 24 hr after application of 0.1 g PEG 1500 ointment to back skin) [µg/g] | Reduced coenzyme Q10 concentration in skin ([1]; 24 hr after application) [µg/g] | Increase of the amount of coenzyme Q10 in skin (in words) [1, 2] | Increase of the amount of reduced coenzyme Q10 in skin (in words) [1, 2] |
| --- | --- | --- | --- | --- | --- | --- | --- | --- | --- | --- | --- | --- | --- | --- | --- |
| COC1=C(OC)C(=O)C(C/C=C(\C)CC/C=C(\C)CC/C=C(\C)CC/C=C(\C)CC/C=C(\C)CC/C=C(\C)CC/C=C(\C)CC/C=C(\C)CC/C=C(\C)CCC=C(C)C)=C(C)C1=O [Oxidized coenzyme Q10, oxidized coenzyme Q10, reference compound] | skin repair promoting effect | – | – | – | – | – | – | – | – | – | – | – | – | – | – |
| COc1c(O)c(C)c(C/C=C(\C)CC/C=C(\C)CC/C=C(\C)CC/C=C(\C)CC/C=C(\C)CC/C=C(\C)CC/C=C(\C)CC/C=C(\C)CC/C=C(\C)CCC=C(C)C)c(O)c1OC [Reduced coenzyme Q10, reduced coenzyme Q10] | skin repair promoting effect | (165***) | (414***) | 13.72 ± 0.70 | 12.55 ± 0.51 | (228*) | (317**) | 17.96 ± 4.85 | 15.84 ± 4.56 | (206*) | (239*) | 15.68 ± 3.95 | 12.99 ± 4.81 | very effective in increasing the amount of coenzyme Q10 in skin | very effective in increasing the amount of reduced coenzyme Q10 in skin |
